According to US20190038689A1, “TOPICAL SKIN COMPOSITIONS FOR TREATING ERYTHEMA OR SKIN INFLAMMATION” (MARY KAY INC., priority 2017, published 2019):

Tested on: Nitric oxide synthases (NOS)
Test: Nitric Oxide Synthase Activity Assay (NO product measured as nitrite, improved Griess method)
Format: biochemical
Conditions: for Nitric Oxide Synthase Activity: negative = reduction
Procedure: Nitric Oxide Synthase Activity Assay:
Nitric oxide synthases (NOS) are a family of enzymes catalyzing the production of nitric oxide (NO) from L-arginine. NOS is an important mediator of vasodilation in blood vessels. This bioassay was used to analyze the effect of saccharide isomerate extract, Myrothamnus flabellifolia extract, [6]-paradol, and a combination of algae extract and mugwort (Artemisia vulgaris) extract on the activity of NOS. The bioassay is performed in the presence or absence of the test compound, test extract, or positive control during production of NO by NOS. To measure the activity of NOS, the NO product is allowed to oxidize to nitrite and nitrate and then the nitrate is reduced to nitrite and measured using an improved Griess method. It was shown that saccharide isomerate extract, Myrothamnus flabellifolia extract, [6]-paradol, and a combination of algae extract and mugwort (Artemisia vulgaris) extract reduced the activity of NOS greater than the 1 μM SIN-1 positive control.

Structure (SMILES): [NH-]c1c[n+](N2CCOCC2)no1 [SIN-1]
- activity of NOS was reduced by (1 μM positive control): approximately 29%
- Nitric Oxide Synthase Activity (1 μM, positive control): −28.7%

Structure (SMILES): CCCCCCCC(=O)CCc1ccc(O)c(OC)c1 [SYMRELIEF ® S, 1-(4-hydroxy-3-methoxyphenyl)decan-3-one]
- Nitric Oxide Synthase Activity (1% ingredient): −46.617%
- activity of NOS was reduced by (rounded values of Table 2 (1% ingredient)): ~47%
